Test results: patent US10214546B2, “Btk inhibitors” (MERCK SHARP & DOHME CORP., priority 2014, dated 2019)
Where two headings read alike, the source gives them in different places.

Assays:
[1] = tested on: adenosine uptake into HeLa cells; assay: [3H]Adenosine uptake assay in HeLa cells; type: cell-based; conditions: [3H]adenosine accumulation in HeLa cells, compound range 10 μM to 0.032 nM, read-out: ADU inhibition IC50
Method: Compounds are also screened in an adenosine uptake functional cellular assay using the protocol described below:
[^3H]Adenosine Uptake Assay Methods
Adenosine uptake activity was determined by monitoring the accumulation of tritiated adenosine into HeLa cells (ATCC catalog # CCL-2) using a PMT-based radiometric detection instrument. In this assay, the potency (IC50) of each compound was determined from a ten point (1:3 serial dilution; final compound concentration range in assay from 10 µM to […]) titration curve using the following outlined procedure. To each well of a 96-well CytoStar-T scintillating microplate (Perkin Elmer Catalog # RPNQ0163), 25 000 HeLa cells in 100 µL of growth medium comprising: Minimum Essential Media (Life Technologies Catalog #11095-080)+10% (v/v) foetal bovine serum (FBS; Sigma Aldrich Catalog # F2442) was added. These cells were incubated overnight at 37° C. in a humidified atmosphere with 5% (v/v) CO2. After this time the growth medium was removed and replaced with 40 μL assay medium comprising: Hanks balanced salts solution (HBSS; Thermo Fisher Catalog # SH30268.01)+5% (v/v) FBS. Compound stock solutions in DMSO were diluted in assay medium to 2.5× final compound concentration maintaining a constant DMSO concentration of 0.25% (v/v). 40 μL of compound in assay medium was dispensed into individual wells of the Cytostar-T plates and the plates were incubated for 30 minutes under ambient laboratory conditions. Following this incubation, 20 μL of 500 nM [^3H] adenosine (American Radiolabeled Chemicals Inc. […] The amount of radiolabel accumulation was then determined using a Perkin Elmer Topcount NXT microplate reader. In brief, HeLa cells adhere to the bottom of the Cytostar-T plate, uptake of [^3H]adenosine into these cells brings the radiolabel into sufficient proximity to excite the scintillant in the base of the plates. These events are captured by single PMT, time-resolved coincidence counting. IC50 values were determined by 4 parameter robust fit of counts per second values vs. (Log10) compound concentrations.

[2] = target: BTK enzyme (recombinant full-length BTK, hBTK) (Homo sapiens (Human), UniProt Q06187); assay: BTK enzymatic activity LANCE TR-FRET assay; type: biochemical; conditions: 50 pM hBTK, 25 μM ATP, 2 μM biotin-A5-peptide; compound range 1 μM to 0.017 nM; read-out: BTK binding IC50
Method: Btk Enzyme Activity Assay Methods
BTK enzymatic activity was determined with the LANCE (Lanthanide Chelate Excite) TR-FRET (Time-resolved fluorescence resonance energy transfer) assay. […] Phosphorylation reactions were allowed to proceed for 120 minutes. […] After 60 minutes incubation with detection reagents, reaction plates were read on a PerkinElmer EnVision plate reader using standard TR-FRET protocol. […] IC50 values were determined by 4 parameter robust fit of TR-FRET ratio values vs. (Log10) compound concentrations.

Sequence of BTK enzyme (recombinant full-length BTK, hBTK) (Q06187 whole entry): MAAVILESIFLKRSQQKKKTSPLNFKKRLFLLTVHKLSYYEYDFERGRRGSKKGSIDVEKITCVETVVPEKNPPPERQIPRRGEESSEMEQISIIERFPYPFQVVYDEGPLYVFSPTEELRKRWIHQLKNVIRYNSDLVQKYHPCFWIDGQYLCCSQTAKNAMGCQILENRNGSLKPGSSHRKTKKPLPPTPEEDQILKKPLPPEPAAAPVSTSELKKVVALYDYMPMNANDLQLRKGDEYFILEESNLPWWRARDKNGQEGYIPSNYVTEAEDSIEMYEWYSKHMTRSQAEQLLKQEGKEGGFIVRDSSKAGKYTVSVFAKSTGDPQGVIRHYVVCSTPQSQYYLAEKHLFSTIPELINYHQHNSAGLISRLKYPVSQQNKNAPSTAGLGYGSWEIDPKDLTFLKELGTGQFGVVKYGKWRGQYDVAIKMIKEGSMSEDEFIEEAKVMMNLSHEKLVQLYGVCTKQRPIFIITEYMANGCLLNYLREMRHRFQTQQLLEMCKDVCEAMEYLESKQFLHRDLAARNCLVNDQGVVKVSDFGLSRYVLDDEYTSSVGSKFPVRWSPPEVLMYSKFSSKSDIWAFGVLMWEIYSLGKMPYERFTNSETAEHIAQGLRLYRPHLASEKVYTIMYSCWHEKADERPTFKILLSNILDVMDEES

SMILES	IC50 ([1]; Homo sapiens, HeLa)	IC50 [2]	IC50 [1]
C[C@](O)(c1cccc(C(F)(F)F)c1)c1ccc(-c2nc([C@@H]3CC[C@H]4CCC(=O)N4C3)n3ccnc(N)c23)c(CO)c1 [Example 20, (6R,8aS)-6-(8-amino-1-(4-((R)-1-hydroxy-1-(3-(trifluoromethyl)phenyl)ethyl)-2-(hydroxymethyl)phenyl)imidazo[1,5-a]pyrazin-3-yl)hexahydroindolizin-3(2H)-one]	2570 nM	230 nM	
C[C@@](O)(c1cccc(C(F)(F)F)c1)c1ccc(-c2nc([C@@H]3CC[C@H]4CCC(=O)N4C3)n3ccnc(N)c23)c(CO)c1 [Example 21, (6R,8aS)-6-(8-amino-1-(4-((S)-1-hydroxy-1-(3-(trifluoromethyl)phenyl)ethyl)-2-(hydroxymethyl)phenyl)imidazo[1,5-a]pyrazin-3-yl)hexahydroindolizin-3(2H)-one]	7480 nM	5.8 nM	
CCOc1cc(C(C)(O)c2cccc(C(F)(F)F)c2)cc(F)c1-c1nc([C@@H]2CC[C@H]3CCC(=O)N3C2)n2ccnc(N)c12 (stereo partly drawn) [Example 22, (6R,8aS)-6-(8-amino-1-(2-ethoxy-6-fluoro-4-(1-hydroxy-1-(3-(trifluoromethyl)phenyl)ethyl)phenyl)imidazo[1,5-a]pyrazin-3-yl)hexahydroindolizin-3(2H)-one]	3820 nM	1.7 nM	
CC(O)(c1ccccc1)c1ccc(-c2nc([C@@H]3CC[C@H]4CCC(=O)N4C3)n3ccnc(N)c23)c(F)c1 (stereo partly drawn) [Example 24]	2490 nM	5.2 nM	
Nc1nccn2c([C@@H]3CC[C@H]4CCC(=O)N4C3)nc(-c3ccc([C@](O)(c4ccccc4)C(F)(F)F)cc3)c12 [Example 25, (6R,8aS)-6-(8-amino-1-{4-[(1R)-2,2,2-trifluoro-1-hydroxy-1-phenylethyl]phenyl}imidazo[1,5-a]pyrazin-3-yl)hexahydroindolizin-3(2H)-one]	3830 nM	1.8 nM	
Nc1nccn2c([C@@H]3CC[C@H]4CCC(=O)N4C3)nc(-c3ccc([C@@](O)(c4ccccc4)C(F)(F)F)cc3)c12 [Example 26, (6R,8aS)-6-(8-amino-1-{4-[(1S)-2,2,2-trifluoro-1-hydroxy-1-phenylethyl]phenyl}imidazo[1,5-a]pyrazin-3-yl)hexahydroindolizin-3(2H)-one]	2610 nM	156 nM	
Nc1nccn2c([C@@H]3CC[C@H]4CCC(=O)N4C3)nc(-c3ccc(C(O)(c4cccc(C(F)(F)F)c4)C(F)(F)F)cc3)c12 (stereo partly drawn) [Example 27, (6R,8aS)-6-[8-amino-1-(4-{2,2,2-trifluoro-1-hydroxy-1-[3-(trifluoromethyl)phenyl]ethyl}phenyl)imidazo [1,5-a]pyrazin-3-yl]hexahydroindolizin-3(2H)-one]	1240 nM	9.8 nM	
Nc1nccn2c([C@@H]3CC[C@H]4CCC(=O)N4C3)nc(-c3ccc(C(O)(c4cccc(F)c4)C(F)(F)F)cc3)c12 (stereo partly drawn) [Example 29, (6R,8aS)-6-(8-amino-1-{4-[2,2,2-trifluoro-1-(3-fluorophenyl)-1-hydroxyethyl]phenyl}imidazo[1,5-a]pyrazin-3-yl)hexahydroindolizin-3(2H)-one]	1990 nM	6.9 nM	
Nc1nccn2c([C@@H]3CC[C@H]4CCC(=O)N4C3)nc(-c3ccc(C(O)(c4ccccc4)C(F)(F)F)cc3F)c12 (stereo partly drawn) [Example 30, (6R,8aS)-6-{8-amino-1-[2-fluoro-4-(2,2,2-trifluoro-1-hydroxy-1-phenylethyl)phenyl)imidazo[1,5-a]pyrazin-3-yl}hexahydroindolizin-3(2H)-one]	1310 nM	2.8 nM	
CC(O)(c1ccc(-c2nc([C@@H]3CC[C@H]4CCC(=O)N4C3)n3ccnc(N)c23)cc1)c1ccccc1C(F)(F)F (stereo partly drawn) [Example 31, (6R,8aS)-6-[8-amino-1-(4-{1-hydroxy-1-[2-(trifluoromethyl)phenyl]ethyl}phenyl)imidazo [1,5-a]pyrazin-3-yl]hexahydroindolizin-3(2H)-one]	4810 nM	78.3 nM	
Cn1nc(C(C)(O)c2ccc(-c3nc([C@@H]4CC[C@H]5CCC(=O)N5C4)n4ccnc(N)c34)cc2)cc1C(F)(F)F (stereo partly drawn) [Example 35, (6R,8aS)-6-[8-amino-1-(4-{1-hydroxy-1-[1-methyl-5-(trifluoromethyl)-1H-pyrazol-3-yl]ethyl}phenyl)imidazo [1,5-a]pyrazin-3-yl]hexahydroindolizin-3(2H)-one]	2230 nM	218 nM	
C[C@](O)(c1ccc(-c2nc([C@@H]3CC[C@H]4CCC(=O)N4C3)n3ccnc(N)c23)cc1)c1cc(C(F)(F)F)ccn1 [Example 36]	704 nM	1000 nM	
C[C@@](O)(c1ccc(-c2nc([C@@H]3CC[C@H]4CCC(=O)N4C3)n3ccnc(N)c23)cc1)c1cc(C(F)(F)F)ccn1 [Example 37, (6R,8aS)-6-[8-amino-1-(4-{(1R)-1-hydroxy-1-[4-(trifluoromethyl)pyridin-2-yl]ethyl}phenyl)imidazo[1,5-a]pyrazin-3-yl]hexahydroindolizin-3(2H)-one]	3470 nM	255 nM	
C[C@@](O)(c1ccc(-c2nc([C@@H]3CC[C@H]4CCC(=O)N4C3)n3ccnc(N)c23)cc1)c1cccc(C2CC2)c1 [Example 38, (6R,8aS)-6-(8-amino-1-{4-[(1R)-1-(3-cyclopropylphenyl)-1-hydroxyethyl]phenyl}imidazo[1,5-a]pyrazin-3-yl)hexahydroindolizin-3(2H)-one]	1840 nM	0.07 nM	
CC(C)(C)c1cccc([C@@](C)(O)c2ccc(-c3nc([C@@H]4CC[C@H]5CCC(=O)N5C4)n4ccnc(N)c34)cc2)c1 [Example 39, (6R,8aS)-6-(8-amino-1-{4-[(1S)-1-(3-tert-butylphenyl)-1-hydroxyethyl]phenyl}imidazo[1,5-a]pyrazin-3-yl)hexahydroindolizin-3(2H)-one]	608 nM	9.6 nM	
CC(C)(C)c1cccc([C@](C)(O)c2ccc(-c3nc([C@@H]4CC[C@H]5CCC(=O)N5C4)n4ccnc(N)c34)cc2)c1 [Example 40, (6R,8aS)-6-(8-amino-1-{4-[(1R)-1-(3-tert-bulylphenyl)-1-hydroxyethyl]phenyl}imidazo[1,5-a]pyrazin-3-yl)hexahydroindolizin-3(2H)-one]	1760 nM	0.27 nM	
C[C@](O)(c1ccc(-c2nc([C@@H]3CC[C@H]4CCC(=O)N4C3)n3ccnc(N)c23)cc1)c1cccc(Cl)c1 [Example 41, (6R,8aS)-6-(8-amino-1-{4-[(1S)-1-(3-chlorophenyl)-1-hydroxyethyl]phenyl}imidazo[1,5-a]pyrazin-3-yl)hexahydroindolizin-3(2H)-one]	588 nM	116 nM	
Cc1cc(-c2nc([C@@H]3CC[C@H]4CCC(=O)N4C3)n3ccnc(N)c23)ccc1C(C)(O)c1cccc(C(F)(F)F)c1 (stereo partly drawn) [Example 42, (6R,8aS)-6-[8-amino-1-(4-{1-hydroxy-1-[3-(trifluoromethyl)phenyl]ethyl}-3-methylphenyl)imidazo [1,5-a]pyrazin-3-yl]hexahydroindolizin-3(2H)-one]		1000 nM	3230 nM
Cc1cc(-c2nc([C@@H]3CC[C@H]4CCC(=O)N4C3)n3ccnc(N)c23)ccc1C(C)(O)c1cccc(C(F)(F)F)c1 (stereo partly drawn) [Example 43, (6R,8aS)-6-[8-amino-1-(4-{1-hydroxy-1-[3-(trifluoromethyl)phenyl]ethyl}-3-methylphenyl)imidazo [1,5-a]pyrazin-3-yl]hexahydroindolizin-3(2H)-one]		1000 nM	535 nM
COc1cccc([C@@](C)(O)c2ccc(-c3nc([C@@H]4CC[C@H]5CCC(=O)N5C4)n4ccnc(N)c34)cc2)c1 [Example 44, (6R,8aS)-6-(8-amino-1-{4-[(1S)-1-hydroxy-1-(3-methoxyphenyl)ethyl]phenyl}imidazo[1,5-a]pyrazin-3-yl)hexahydroindolizin-3(2H)-one]	1780 nM	81.4 nM	
COc1cccc([C@](C)(O)c2ccc(-c3nc([C@@H]4CC[C@H]5CCC(=O)N5C4)n4ccnc(N)c34)cc2)c1 [Example 45, (6R,8aS)-6-(8-amino-1-{4-[(1R)-1-hydroxy-1-(3-methoxyphenyl)ethyl]phenyl}imidazo[1,5-a]pyrazin-3-yl)hexahydroindolizin-3(2H)-one]	2760 nM	1.1 nM	
